# Laboratory results taken from patent US20080015237A1 (ASTRAZENECA AB, priority 2006, published 2008).
# Target: human Kv1.5 channel (Homo sapiens, UniProt P22460)
# Experiment: Test A: Rb+ efflux assay
# Assay type: cell-based
# Conditions: CHO cells stably transfected with cDNA for human Kv1.5
# Method: This assay identifies compounds that block the human Kv1.5 channel potassium channel heterologously expressed in Chinese Hamster Ovary (CHO) cells by means of Rb+ ion efflux using Flame Atomic Absorption Spectroscopy. For experimental studies, CHO cells stably transfected with cDNA for human Kv1.5 were grown as confluent layers in Falcon, 384-well tissue culture-treated black-walled clear-bottomed plates and the plates were incubated overnight at 37° C. in a cell culture incubator.
# After incubating overnight the cell plates were washed and a buffer containing Rb+ ions were added to the cell plates. The plates were then incubated for another 3-4 hours in a CO2-incubator (37° C.). Following this incubation period plates were washed, compounds were added and subsequently a buffer containing elevated K+ concentrations were added in order to activate the Kv1.5 channel. Following a short incubation time, aliquots of the supernatants were transferred to supernatant plates for subsequent determination of the Rb+ content using Atomic Absorption Spectrometry (ICR8000 instrument, Aurora Biomed Inc.).
# Sequence of human Kv1.5 channel (P22460 whole entry): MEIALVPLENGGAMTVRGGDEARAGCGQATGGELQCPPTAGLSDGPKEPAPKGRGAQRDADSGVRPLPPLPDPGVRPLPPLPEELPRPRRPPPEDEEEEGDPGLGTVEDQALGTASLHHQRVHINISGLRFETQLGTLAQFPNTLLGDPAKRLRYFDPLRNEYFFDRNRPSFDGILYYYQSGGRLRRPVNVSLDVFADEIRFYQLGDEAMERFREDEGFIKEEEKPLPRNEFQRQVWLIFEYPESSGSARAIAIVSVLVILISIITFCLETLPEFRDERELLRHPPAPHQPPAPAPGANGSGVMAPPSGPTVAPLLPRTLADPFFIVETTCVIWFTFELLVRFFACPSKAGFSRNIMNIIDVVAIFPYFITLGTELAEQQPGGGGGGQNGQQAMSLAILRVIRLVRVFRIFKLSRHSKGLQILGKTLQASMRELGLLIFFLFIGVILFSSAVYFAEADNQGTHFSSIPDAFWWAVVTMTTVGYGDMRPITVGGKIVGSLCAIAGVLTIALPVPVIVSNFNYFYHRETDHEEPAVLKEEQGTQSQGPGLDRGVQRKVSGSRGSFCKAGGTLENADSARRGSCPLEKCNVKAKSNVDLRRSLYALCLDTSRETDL
row,IC50,SMILES
1,1800 nM,"CN(C)c1ccc(CNC(=O)C2c3ccccc3C(=O)N2Cc2cc(C(F)(F)F)cc(C(F)(F)F)c2)cc1 (stereo not shown) [2-[3,5-bis(trifluoromethyl)benzyl]-N-[4-(dimethylamino)benzyl]-3-oxoisoindoline-1-carboxamide]"
2,2100 nM,O=C(NCc1ccc(F)cc1)C1c2ccccc2C(=O)N1C(c1ccncc1)c1ccc(Cl)cc1 (stereo not shown) [2-[(4-chlorophenyl)(pyridin-4-yl)methyl]-N-(4-fluorobenzyl)-3-oxoisoindoline-1-carboxamide]
3,2700 nM,CNC(=O)C1c2cc(Br)ccc2C(=O)N1Cc1ccccc1C1CCCC1 (stereo not shown) [6-bromo-2-(2-cyclopentylbenzyl)-N-methyl-3-oxoisoindoline-1-carboxamide]
4,1300 nM,"O=C(NCCCC(F)F)C1c2cc(Cl)ccc2C(=O)N1Cc1ccccc1C1CCCC1 (stereo not shown) [6-chloro-2-(2-cyclopentylbenzyl)-N-(4,4-difluorobutyl)-3-oxoisoindoline-1-carboxamide]"
5,460 nM,"CC(CN1C(=O)c2ccc(Cl)cc2C1C(=O)NCCCC(F)(F)F)c1ccc(Cl)cc1 (stereo not shown) [6-chloro-2-[2-(4-chlorophenyl)propyl]-3-oxo-N-(4,4,4-trifluorobutyl)isoindoline-1-carboxamide]"
6,680 nM,CC(CN1C(=O)c2ccc(Cl)cc2C1C(=O)NCc1cccnc1)c1ccc(Cl)cc1 (stereo not shown) [6-chloro-2-[2-(4-chlorophenyl)propyl]-3-oxo-N-(pyridin-3-ylmethyl)isoindoline-1-carboxamide]
7,420 nM,CC(CN1C(=O)c2ccc(Cl)cc2C1C(=O)NCc1ccc(C(F)(F)F)nc1)c1ccc(Cl)cc1 (stereo not shown) [6-chloro-2-[2-(4-chlorophenyl)propyl]-3-oxo-N-{[6-(trifluoromethyl)pyridin-3-yl]methyl}isoindoline-1-carboxamide]
8,2800 nM,CC(CN1C(=O)c2ccc(Cl)cc2C1C(=O)NCc1ccc(S(C)(=O)=O)cc1)c1ccc(Cl)cc1 (stereo not shown) [6-chloro-2-[2-(4-chlorophenyl)propyl]-N-[4-(methylsulfonyl)benzyl]-3-oxoisoindoline-1-carboxamide]
9,2000 nM,"C[C@H](c1ccccc1)N1C(=O)c2ccc(Cl)cc2C1C(=O)NCCCC(F)(F)F (stereo partly drawn) [6-chloro-3-oxo-2-[(1R)-1-phenylethyl]-N-(4,4,4-trifluorobutyl)isoindoline-1-carboxamide]"
10,2500 nM,"O=C(NCCCC(F)(F)F)C1c2cc(Cl)ccc2C(=O)N1Cc1ccccc1C(F)(F)F (stereo not shown) [6-chloro-3-oxo-N-(4,4,4-trifluorobutyl)-2-[2-(trifluoromethyl)benzyl]isoindoline-1-carboxamide]"
11,2100 nM,"CC(C)(CO)CN1C(=O)c2ccc(Cl)cc2C1C(=O)NCc1cccc(Cl)c1 (stereo not shown) [6-chloro-N-(3-chlorobenzyl)-2-(3-hydroxy-2,2-dimethylpropyl)-3-oxoisoindoline-1-carboxamide]"
12,410 nM,"CC(C)(CO)CN1C(=O)c2ccc(Cl)cc2C1C(=O)NCc1cccc(OC(F)F)c1 (stereo not shown) [6-chloro-N-[3-(difluoromethoxy)benzyl]-2-(3-hydroxy-2,2-dimethylpropyl)-3-oxoisoindoline-1-carboxamide]"
13,1700 nM,"CC(C)(CO)CN1C(=O)c2ccc(F)cc2C1C(=O)NCc1cccc(C(F)(F)F)c1 (stereo not shown) [6-fluoro-2-(3-hydroxy-2,2-dimethylpropyl)-3-oxo-N-[3-(trifluoromethyl)benzyl]isoindoline-1-carboxamide]"
14,840 nM,"O=C(NCc1ccccc1)C1c2cc(Br)ccc2C(=O)N1Cc1ccccc1 (stereo not shown) [N,2-dibenzyl-6-bromo-3-oxoisoindoline-1-carboxamide]"
15,620 nM,"CC(CN1C(=O)c2ccccc2C1C(=O)NCc1ccc2c(c1)OCO2)c1ccc(Cl)cc1 (stereo not shown) [N-(1,3-benzodioxol-5-ylmethyl)-2-[2-(4-chlorophenyl)propyl]-3-oxoisoindoline-1-carboxamide]"
16,750 nM,CC(CN1C(=O)c2ccccc2C1C(=O)NCc1ccccc1Cl)c1ccc(Cl)cc1 (stereo not shown) [N-(2-chlorobenzyl)-2-[2-(4-chlorophenyl)propyl]-3-oxoisoindoline-1-carboxamide]
17,2500 nM,"CC(C)(C)CN1C(=O)c2ccccc2C1C(=O)NCc1ccc(Cl)c(Cl)c1 (stereo not shown) [N-(3,4-dichlorobenzyl)-2-(2,2-dimethylpropyl)-3-oxoisoindoline-1-carboxamide]"
18,2900 nM,"CC(C)(C)CN1C(=O)c2ccccc2C1C(=O)NCc1cccc(Cl)c1 (stereo not shown) [N-(3-chlorobenzyl)-2-(2,2-dimethylpropyl)-3-oxoisoindoline-1-carboxamide]"
19,340 nM,"CC(C)(CO)CN1C(=O)c2ccc(F)cc2C1C(=O)NCc1cccc(Cl)c1 (stereo not shown) [N-(3-chlorobenzyl)-6-fluoro-2-(3-hydroxy-2,2-dimethylpropyl)-3-oxoisoindoline-1-carboxamide]"
20,8000 nM,"O=C(NCCCC(F)F)C1c2ccccc2C(=O)N1C(c1ccccc1)c1ccccc1 (stereo not shown) [N-(4,4-difluorobutyl)-2-(diphenylmethyl)-3-oxoisoindoline-1-carboxamide]"

row,IC50,SMILES
1,3000 nM,Cc1c(OCF)ccc2c1C(=O)N(CC(C)c1ccc(Cl)cc1)C2C(=O)NC(C)(C)C (stereo not shown) [N-(tert-butyl)-2-[2-(4-chlorophenyl)propyl]-5-(fluoromethoxy)-4-methyl-3-oxoisoindoline-1-carboxamide]
2,2500 nM,Cn1nc(CN2C(=O)c3ccccc3C2C(=O)NC(C)(C)C)cc1-c1ccccc1 (stereo not shown) [N-(tert-butyl)-2-[(1-methyl-5-phenyl-1H-pyrazol-3-yl)methyl]-3-oxoisoindoline-1-carboxamide]
3,720 nM,"Cc1c(O)ccc2c1C(=O)N(Cc1ccccc1-c1ccc(Cl)c(Cl)c1)C2C(=O)NC(C)(C)C (stereo not shown) [N-(tert-butyl)-2-[(3′,4′-dichlorobiphenyl-2-yl)methyl]-5-hydroxy-4-methyl-3-oxoisoindoline-1-carboxamide]"
4,2200 nM,"CC(C)(C)NC(=O)C1c2ccccc2C(=O)N1Cc1ccccc1-c1ccc(F)c(F)c1 (stereo not shown) [N-(tert-butyl)-2-[(3′,4′-difluorobiphenyl-2-yl)methyl]-3-oxoisoindoline-1-carboxamide]"
5,2000 nM,"Cc1c(O)ccc2c1C(=O)N(Cc1ccccc1-c1ccc(F)c(F)c1)C2C(=O)NC(C)(C)C (stereo not shown) [N-(tert-butyl)-2-[(3′,4′-difluorobiphenyl-2-yl)methyl]-5-hydroxy-4-methyl-3-oxoisoindoline-1-carboxamide]"
6,5600 nM,"CC(C)(C)NC(=O)C1c2ccccc2C(=O)N1Cc1cc(F)ccc1-c1ccc(F)cc1 (stereo not shown) [N-(tert-butyl)-2-[(4,4′-difluorobiphenyl-2-yl)methyl]-3-oxoisoindoline-1-carboxamide]"
7,5200 nM,CC(C)(C)NC(=O)C1c2ccccc2C(=O)N1Cc1cc(F)ccc1-c1ccccc1 (stereo not shown) [N-(tert-butyl)-2-[(4-fluorobiphenyl-2-yl)methyl]-3-oxoisoindoline-1-carboxamide]
8,9300 nM,"CC(C)(C)NC(=O)C1c2ccccc2C(=O)N1Cc1ccc(F)cc1-c1ccc(F)cc1 (stereo not shown) [N-(tert-butyl)-2-[(4′,5-difluorobiphenyl-2-yl)methyl]-3-oxoisoindoline-1-carboxamide]"
9,7300 nM,CC(C)(C)NC(=O)C1c2ccccc2C(=O)N1Cc1ccccc1-c1ccc(F)cc1 (stereo not shown) [N-(tert-butyl)-2-[(4′-fluorobiphenyl-2-yl)methyl]-3-oxoisoindoline-1-carboxamide]
10,13000 nM,CC(C)(C)NC(=O)C1c2ccccc2C(=O)N1Cc1ccc(F)cc1-c1ccccc1 (stereo not shown) [N-(tert-butyl)-2-[(5-fluorobiphenyl-2-yl)methyl]-3-oxoisoindoline-1-carboxamide]
11,1900 nM,CC(C)(C)NC(=O)C1c2ccccc2C(=O)N1Cc1ccccc1C(F)(F)F (stereo not shown) [N-(tert-butyl)-3-oxo-2-[2-(trifluoromethyl)benzyl]isoindoline-1-carboxamide]
12,1800 nM,"CC(CN1C(=O)c2cc(Cl)c(Cl)cc2C1C(=O)NC(C)(C)C)c1ccc(Cl)cc1 (stereo not shown) [N-(tert-butyl)-5,6-dichloro-2-[2-(4-chlorophenyl)propyl]-3-oxoisoindoline-1-carboxamide]"
13,2000 nM,Cc1c(O)ccc2c1C(=O)N(Cc1ccccc1Oc1ccc(C(F)(F)F)cc1)C2C(=O)NC(C)(C)C (stereo not shown) [N-(tert-butyl)-5-hydroxy-4-methyl-3-oxo-2-{2-[4-(trifluoromethyl)phenoxy]benzyl}isoindoline-1-carboxamide]
14,2800 nM,CC(C)(C)NC(=O)C1c2cc(Cl)ccc2C(=O)N1C(c1ccccc1)c1ccccc1 (stereo not shown) [N-(tert-butyl)-6-chloro-2-(diphenylmethyl)-3-oxoisoindoline-1-carboxamide]
15,910 nM,CC(CN1C(=O)c2ccc(Cl)cc2C1C(=O)NC(C)(C)C)c1ccc(Cl)cc1 (stereo not shown) [N-(tert-butyl)-6-chloro-2-[2-(4-chlorophenyl)propyl]-3-oxoisoindoline-1-carboxamide]
16,1100 nM,CC(C)(C)NC(=O)C1c2cc(Cl)ccc2C(=O)N1Cc1ccccc1C(F)(F)F (stereo not shown) [N-(tert-butyl)-6-chloro-3-oxo-2-[2-(trifluoromethyl)benzyl]isoindoline-1-carboxamide]
17,1300 nM,"CC(C)(C)CN1C(=O)c2ccccc2C1C(=O)NCc1cccc(OC(F)F)c1 (stereo not shown) [N-[3-(difluoromethoxy)benzyl]-2-(2,2-dimethylpropyl)-3-oxoisoindoline-1-carboxamide]"
18,1800 nM,"CC(C)(C)CCN1C(=O)c2ccccc2C1C(=O)NCc1cccc(OC(F)F)c1 (stereo not shown) [N-[3-(difluoromethoxy)benzyl]-2-(3,3-dimethylbutyl)-3-oxoisoindoline-1-carboxamide]"
19,2400 nM,CC(c1ccccc1)N1C(=O)c2ccccc2C1C(=O)NCc1cccc(OC(F)F)c1 (stereo not shown) [N-[3-(difluoromethoxy)benzyl]-3-oxo-2-(1-phenylethyl)isoindoline-1-carboxamide]
20,1400 nM,"CC(C)(CO)CN1C(=O)c2ccc(F)cc2C1C(=O)NCc1cccc(OC(F)F)c1 (stereo not shown) [N-[3-(difluoromethoxy)benzyl]-6-fluoro-2-(3-hydroxy-2,2-dimethylpropyl)-3-oxoisoindoline-1-carboxamide]"
